Measured values reported in patent publication US20210038753A1, “BIOLOGICAL STERILIZATION INDICATOR WITH STERILANT RESISTANCE MODULATOR” (3M INNOVATIVE PROPERTIES COMPANY, priority 2014, published 2021).

Tests used:
[1] = test system: Geobacillus stearothermophilus spores; experiment: Resistance of self-contained biological indicators to hydrogen peroxide sterilization, glucosidase enzyme activity fluorescence readout (ENZ+); type: cell-based
Procedure: (§1) PET film (.09 mm thick) was coated with colloidal silica as described in International Publication No. WO2014/189716, which is incorporated herein by reference in its entirety. […] Separate aqueous spore coating solutions were prepared as described in Example 1 with the amino acids shown in table 4 present in the coating solutions. Two microliter aliquots (containing at least 10^6 spores) of the respective spore coating solutions were deposited onto the silica-coated PET film, forming a series of spaced-apart spots on the film. The spore coated films were dried in a 60° C. incubator for 12 minutes. Circular discs (hereinafter, “coated carriers”) of the PET film, each disc including one of the dried spots, were punched out and were used to assemble self-contained biological indicators (BI) similar to that shown in FIG. 1 of International Publication No. WO2014/189716. The coated carriers described above were placed into the “spore carrier 135” shown in FIG. 1 of International Publication No. WO2014/189716. Each self-contained BI comprised a polycarbonate outer container, a breaker, a cap, and a cap filter. Disposed inside the outer container were a coated carrier along with an ampoule media containing the nutrient medium from 3M ATTEST 1292 Rapid Readout Biological Indicators plus 5g/L methionine (as described in Example 1).
(§2) The self-contained biological indicators with different concentrations of additives (Table 4) were exposed to hydrogen peroxide sterilization in STERRAD NX sterilizer. The sterilization processes were run by manually injecting 1.0 ml of 59% hydrogen peroxide per load, unless specified otherwise. The exposure time was varied to determine the resistance profile of self-contained BIs with different additive formulations. The BIs were activated by pressing down the cap to break the media ampoule. The activated BIs were placed in a bench-top fluorimeter (3M Company, St. Paul, Minn.) to detect fluorescence.
(§3) A self-contained BI that is not completely inactivated (i.e., not all of the spores are killed by the sterilization process) will resume cellular functions upon activation of the BI. The production of glucosidase enzyme by surviving spores is an indication that at least one of the spores have not been inactivated (killed) by the sterilization process. The glucosidase enzyme cleaves the 4-methylumbelliferyl-glucoside (MUG) releasing the fluorescent methyl umbelliferone, which is detected using a bench-top fluorimeter. Growth and proliferation of spores in the self-contained biological indicator can also be detected by a pH change, which may be detected by a color change of the pH indicator in the growth medium.
(§4) Self-contained biological indicators were prepared (with various additives listed in table 4) as described above in this Example. For each additive tested, a lower range and a higher range was used as a preliminary screen to identify additives modulated the resistance of the spores to the sterilant. Five self-contained BIs representing each condition were exposed to hydrogen peroxide sterilization in STERRAD NX sterilizer. The sterilization processes used a constant injection volume (1.0 ml of 59% hydrogen peroxide) and various times (e.g., 20 seconds to 7 minutes) of exposure to the hydrogen peroxide. The self-contained BIs were activated after exposure to the sterilization process and were monitored for fluorescence using a bench-top fluorimeter) and pH based color change (visually). […]
(§5) Self-contained biological indicators (with various additives listed in table 5) were prepared as described in Example 2. The self-contained biological indicators were exposed to hydrogen peroxide in a STERRAD NX sterilizer as described in Example 2. The self-contained BIs were activated after exposure to the sterilization process and were monitored for fluorescence using a bench-top fluorimeter and pH based color change (visually).

[2] = test system: Geobacillus stearothermophilus spores; experiment: Resistance of self-contained biological indicators to hydrogen peroxide sterilization, growth readout by pH colour change (GRO+); type: cell-based
Procedure: as §1, §2, §3, §4, §5

[3] = Table 4, modulator 0.01 weight percent in spore coating solution, H2O2 exposure 30 sec.
[4] = Table 4, modulator 0.01 weight percent in spore coating solution, H2O2 exposure 60 sec.
[5] = Table 4, modulator 0.01 weight percent in spore coating solution, H2O2 exposure 90 sec.
[6] = Table 4, modulator 0.01 weight percent in spore coating solution, H2O2 exposure 3 min.
[7] = Table 4, modulator 0.01 weight percent in spore coating solution, H2O2 exposure 7 min.
[8] = Table 4, modulator 0.1 weight percent in spore coating solution, H2O2 exposure 30 sec.
[9] = Table 4, modulator 0.1 weight percent in spore coating solution, H2O2 exposure 60 sec.
[10] = Table 4, modulator 0.1 weight percent in spore coating solution, H2O2 exposure 90 sec.
[11] = Table 4, modulator 0.1 weight percent in spore coating solution, H2O2 exposure 3 min.
[12] = Table 4, modulator 0.1 weight percent in spore coating solution, H2O2 exposure 7 min.
[13] = Table 5, modulator 0.05 weight percent in spore coating solution, H2O2 exposure 20 sec.
[14] = Table 5, modulator 0.05 weight percent in spore coating solution, H2O2 exposure 30 sec.
[15] = Table 5, modulator 0.05 weight percent in spore coating solution, H2O2 exposure 60 sec.
[16] = Table 5, modulator 0.05 weight percent in spore coating solution, H2O2 exposure 90 sec.
[17] = Table 5, modulator 0.05 weight percent in spore coating solution, H2O2 exposure 3 min.
[18] = Table 5, modulator 0.05 weight percent in spore coating solution, H2O2 exposure 7 min.
[19] = Table 5, modulator 0.1 weight percent in spore coating solution, H2O2 exposure 20 sec.
[20] = Table 5, modulator 0.1 weight percent in spore coating solution, H2O2 exposure 30 sec.
[21] = Table 5, modulator 0.1 weight percent in spore coating solution, H2O2 exposure 60 sec.
[22] = Table 5, modulator 0.1 weight percent in spore coating solution, H2O2 exposure 90 sec.
[23] = Table 5, modulator 0.1 weight percent in spore coating solution, H2O2 exposure 3 min.
[24] = Table 5, modulator 0.1 weight percent in spore coating solution, H2O2 exposure 7 min.
[25] = Table 5, modulator 0.2 weight percent in spore coating solution, H2O2 exposure 20 sec.
[26] = Table 5, modulator 0.2 weight percent in spore coating solution, H2O2 exposure 30 sec.
[27] = Table 5, modulator 0.2 weight percent in spore coating solution, H2O2 exposure 60 sec.
[28] = Table 5, modulator 0.2 weight percent in spore coating solution, H2O2 exposure 90 sec.
[29] = Table 5, modulator 0.2 weight percent in spore coating solution, H2O2 exposure 3 min.
[30] = Table 5, modulator 0.2 weight percent in spore coating solution, H2O2 exposure 7 min.
[31] = Table 5, modulator 0.4 weight percent in spore coating solution, H2O2 exposure 20 sec.
[32] = Table 5, modulator 0.4 weight percent in spore coating solution, H2O2 exposure 30 sec.
[33] = Table 5, modulator 0.4 weight percent in spore coating solution, H2O2 exposure 60 sec.
[34] = Table 5, modulator 0.4 weight percent in spore coating solution, H2O2 exposure 90 sec.
[35] = Table 5, modulator 0.4 weight percent in spore coating solution, H2O2 exposure 3 min.
[36] = Table 5, modulator 0.4 weight percent in spore coating solution, H2O2 exposure 7 min.
[37] = Table 5, modulator 0.8 weight percent in spore coating solution, H2O2 exposure 20 sec.
[38] = Table 5, modulator 0.8 weight percent in spore coating solution, H2O2 exposure 30 sec.
[39] = Table 5, modulator 0.8 weight percent in spore coating solution, H2O2 exposure 60 sec.
[40] = Table 5, modulator 0.8 weight percent in spore coating solution, H2O2 exposure 90 sec.
[41] = Table 5, modulator 0.8 weight percent in spore coating solution, H2O2 exposure 3 min.
[42] = Table 5, modulator 0.8 weight percent in spore coating solution, H2O2 exposure 7 min.

N[C@@H](Cc1c[nH]cn1)C(=O)O [L-histidine]
percentage of self-contained biological indicators positive for glucosidase enzyme activity (ENZ+) [1, 3]: 100% | percentage of self-contained biological indicators positive for glucosidase enzyme activity (ENZ+) [1, 4]: 80% | percentage of self-contained biological indicators positive for glucosidase enzyme activity (ENZ+) [1, 5]: 0% | percentage of self-contained biological indicators positive for glucosidase enzyme activity (ENZ+) [1, 6]: 0% | percentage of self-contained biological indicators positive for glucosidase enzyme activity (ENZ+) [1, 7]: 0% | percentage of self-contained biological indicators positive for glucosidase enzyme activity (ENZ+) [1, 8]: 100% | percentage of self-contained biological indicators positive for glucosidase enzyme activity (ENZ+) [1, 9]: 10% | percentage of self-contained biological indicators positive for glucosidase enzyme activity (ENZ+) [1, 10]: 0% | percentage of self-contained biological indicators positive for glucosidase enzyme activity (ENZ+) [1, 11]: 0% | percentage of self-contained biological indicators positive for glucosidase enzyme activity (ENZ+) [1, 12]: 0% | percentage of self-contained biological indicators positive for glucosidase enzyme activity (ENZ+) [1, 13]: 100% | percentage of self-contained biological indicators positive for glucosidase enzyme activity (ENZ+) [1, 14]: 100% | percentage of self-contained biological indicators positive for glucosidase enzyme activity (ENZ+) [1, 15]: 0% | percentage of self-contained biological indicators positive for glucosidase enzyme activity (ENZ+) [1, 16]: 0% | percentage of self-contained biological indicators positive for glucosidase enzyme activity (ENZ+) [1, 17]: 0% | percentage of self-contained biological indicators positive for glucosidase enzyme activity (ENZ+) [1, 18]: 0% | percentage of self-contained biological indicators positive for glucosidase enzyme activity (ENZ+) [1, 19]: 100% | percentage of self-contained biological indicators positive for glucosidase enzyme activity (ENZ+) [1, 20]: 100% | percentage of self-contained biological indicators positive for glucosidase enzyme activity (ENZ+) [1, 21]: 67% | percentage of self-contained biological indicators positive for glucosidase enzyme activity (ENZ+) [1, 22]: 67% | percentage of self-contained biological indicators positive for glucosidase enzyme activity (ENZ+) [1, 23]: 0% | percentage of self-contained biological indicators positive for glucosidase enzyme activity (ENZ+) [1, 24]: 0% | percentage of self-contained biological indicators positive for glucosidase enzyme activity (ENZ+) [1, 25]: 100% | percentage of self-contained biological indicators positive for glucosidase enzyme activity (ENZ+) [1, 26]: 100% | percentage of self-contained biological indicators positive for glucosidase enzyme activity (ENZ+) [1, 27]: 33% | percentage of self-contained biological indicators positive for glucosidase enzyme activity (ENZ+) [1, 28]: 67% | percentage of self-contained biological indicators positive for glucosidase enzyme activity (ENZ+) [1, 29]: 0% | percentage of self-contained biological indicators positive for glucosidase enzyme activity (ENZ+) [1, 30]: 0% | percentage of self-contained biological indicators positive for glucosidase enzyme activity (ENZ+) [1, 31]: 100% | percentage of self-contained biological indicators positive for glucosidase enzyme activity (ENZ+) [1, 32]: 100% | percentage of self-contained biological indicators positive for glucosidase enzyme activity (ENZ+) [1, 33]: 0% | percentage of self-contained biological indicators positive for glucosidase enzyme activity (ENZ+) [1, 34]: 33% | percentage of self-contained biological indicators positive for glucosidase enzyme activity (ENZ+) [1, 35]: 0% | percentage of self-contained biological indicators positive for glucosidase enzyme activity (ENZ+) [1, 36]: 0% | percentage of self-contained biological indicators positive for glucosidase enzyme activity (ENZ+) [1, 37]: 100% | percentage of self-contained biological indicators positive for glucosidase enzyme activity (ENZ+) [1, 38]: 100% | percentage of self-contained biological indicators positive for glucosidase enzyme activity (ENZ+) [1, 39]: 0% | percentage of self-contained biological indicators positive for glucosidase enzyme activity (ENZ+) [1, 40]: 67% | percentage of self-contained biological indicators positive for glucosidase enzyme activity (ENZ+) [1, 41]: 0% | percentage of self-contained biological indicators positive for glucosidase enzyme activity (ENZ+) [1, 42]: 0% | sensitivity of the biological indicator to the sterilization process relative to the control with no additives ([2]; Example 2 / Comparative Example 1 (Table 4), fluorescence and growth readouts): increased sensitivity (decreased resistance) | sensitivity of the spores to the damaging/lethal effects of the sterilization process relative to the control with no additives ([2]; Example 3 (Table 5), fluorescence and growth readouts): increased sensitivity | percentage of self-contained biological indicators positive for growth (GRO+) [2, 3]: 80% | percentage of self-contained biological indicators positive for growth (GRO+) [2, 4]: 0% | percentage of self-contained biological indicators positive for growth (GRO+) [2, 5]: 0% | percentage of self-contained biological indicators positive for growth (GRO+) [2, 6]: 0% | percentage of self-contained biological indicators positive for growth (GRO+) [2, 7]: 0% | percentage of self-contained biological indicators positive for growth (GRO+) [2, 8]: 0% | percentage of self-contained biological indicators positive for growth (GRO+) [2, 9]: 0% | percentage of self-contained biological indicators positive for growth (GRO+) [2, 10]: 0% | percentage of self-contained biological indicators positive for growth (GRO+) [2, 11]: 0% | percentage of self-contained biological indicators positive for growth (GRO+) [2, 12]: 0% | percentage of self-contained biological indicators positive for growth (GRO+) [2, 13]: 100% | percentage of self-contained biological indicators positive for growth (GRO+) [2, 14]: 100% | percentage of self-contained biological indicators positive for growth (GRO+) [2, 15]: 0% | percentage of self-contained biological indicators positive for growth (GRO+) [2, 16]: 0% | percentage of self-contained biological indicators positive for growth (GRO+) [2, 17]: 0% | percentage of self-contained biological indicators positive for growth (GRO+) [2, 18]: 0% | percentage of self-contained biological indicators positive for growth (GRO+) [2, 19]: 100% | percentage of self-contained biological indicators positive for growth (GRO+) [2, 20]: 33% | percentage of self-contained biological indicators positive for growth (GRO+) [2, 21]: 0% | percentage of self-contained biological indicators positive for growth (GRO+) [2, 22]: 0% | percentage of self-contained biological indicators positive for growth (GRO+) [2, 23]: 0% | percentage of self-contained biological indicators positive for growth (GRO+) [2, 24]: 0% | percentage of self-contained biological indicators positive for growth (GRO+) [2, 25]: 100% | percentage of self-contained biological indicators positive for growth (GRO+) [2, 26]: 0% | percentage of self-contained biological indicators positive for growth (GRO+) [2, 27]: 0% | percentage of self-contained biological indicators positive for growth (GRO+) [2, 28]: 0% | percentage of self-contained biological indicators positive for growth (GRO+) [2, 29]: 0% | percentage of self-contained biological indicators positive for growth (GRO+) [2, 30]: 0% | percentage of self-contained biological indicators positive for growth (GRO+) [2, 31]: 100% | percentage of self-contained biological indicators positive for growth (GRO+) [2, 32]: 0% | percentage of self-contained biological indicators positive for growth (GRO+) [2, 33]: 0% | percentage of self-contained biological indicators positive for growth (GRO+) [2, 34]: 0% | percentage of self-contained biological indicators positive for growth (GRO+) [2, 35]: 0% | percentage of self-contained biological indicators positive for growth (GRO+) [2, 36]: 0% | percentage of self-contained biological indicators positive for growth (GRO+) [2, 37]: 33% | percentage of self-contained biological indicators positive for growth (GRO+) [2, 38]: 0% | percentage of self-contained biological indicators positive for growth (GRO+) [2, 39]: 0% | percentage of self-contained biological indicators positive for growth (GRO+) [2, 40]: 0% | percentage of self-contained biological indicators positive for growth (GRO+) [2, 41]: 0% | percentage of self-contained biological indicators positive for growth (GRO+) [2, 42]: 0%
